The record followed here is paper PMC8213057, “Targeting ALK2: An Open Science Approach to Developing Therapeutics for the Treatment of Diffuse Intrinsic Pontine Glioma” (Journal of Medicinal Chemistry, 2020).

The target of experiment [1] is CDK5/p35 (Homo sapiens, UniProt Q00535). The experiment is described as follows: biochemical. Conditions: read-out: % enzyme activity, 1 μM; Run 1, Run 2.
Experiment [2] concerns the target FGFR4 (Homo sapiens, UniProt P22455). The experiment is described as follows: biochemical. Conditions: read-out: % enzyme activity, 1 μM; Run 1, Run 2.
Experiment [3] concerns the target T1, PKG2/PRKG2 (Homo sapiens, UniProt Q13237).
T1 sequence (Q13237 1-762): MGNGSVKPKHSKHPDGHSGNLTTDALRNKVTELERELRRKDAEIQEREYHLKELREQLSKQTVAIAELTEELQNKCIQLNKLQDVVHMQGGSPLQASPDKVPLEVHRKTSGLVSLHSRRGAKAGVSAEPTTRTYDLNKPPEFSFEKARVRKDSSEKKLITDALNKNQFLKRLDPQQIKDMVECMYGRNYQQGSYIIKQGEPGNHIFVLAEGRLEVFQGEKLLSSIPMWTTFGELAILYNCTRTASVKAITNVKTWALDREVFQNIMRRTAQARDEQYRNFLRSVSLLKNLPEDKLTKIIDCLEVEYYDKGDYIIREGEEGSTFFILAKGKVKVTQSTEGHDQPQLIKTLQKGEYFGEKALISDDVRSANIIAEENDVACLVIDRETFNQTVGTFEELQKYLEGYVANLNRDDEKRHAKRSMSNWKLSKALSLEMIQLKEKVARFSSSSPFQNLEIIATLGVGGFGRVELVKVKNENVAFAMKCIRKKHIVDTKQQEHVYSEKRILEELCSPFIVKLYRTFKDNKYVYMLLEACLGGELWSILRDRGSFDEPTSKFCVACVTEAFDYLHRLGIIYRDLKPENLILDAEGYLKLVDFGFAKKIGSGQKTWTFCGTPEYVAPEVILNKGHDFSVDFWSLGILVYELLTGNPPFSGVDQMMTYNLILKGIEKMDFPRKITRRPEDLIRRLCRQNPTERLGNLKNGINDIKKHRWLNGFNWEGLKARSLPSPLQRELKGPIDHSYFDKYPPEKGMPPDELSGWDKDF
Particulars: 1 μM; Run 1, Run 2.

In experiment [4] the target is T2, MKK7 (Homo sapiens, UniProt O14733).
T2 sequence (O14733 1-419): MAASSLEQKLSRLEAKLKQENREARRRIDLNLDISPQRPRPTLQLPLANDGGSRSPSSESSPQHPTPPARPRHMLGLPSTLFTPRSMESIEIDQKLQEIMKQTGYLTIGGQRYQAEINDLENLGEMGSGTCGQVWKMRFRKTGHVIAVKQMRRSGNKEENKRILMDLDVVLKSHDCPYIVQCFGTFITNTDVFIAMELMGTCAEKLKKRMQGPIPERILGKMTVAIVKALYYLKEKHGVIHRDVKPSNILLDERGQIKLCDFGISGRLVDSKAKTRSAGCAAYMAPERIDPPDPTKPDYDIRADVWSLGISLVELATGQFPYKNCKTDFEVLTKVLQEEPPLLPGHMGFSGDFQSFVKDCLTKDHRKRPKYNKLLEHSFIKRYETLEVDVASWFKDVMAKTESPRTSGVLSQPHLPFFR
Particulars: 1 μM; Run 1, Run 2.

The target in experiment [5] is CDK6/cyclin D3 (Homo sapiens, UniProt Q00534). The experiment is described as follows: biochemical. Particulars: read-out: % enzyme activity, 1 μM; Run 1, Run 2.
For experiment [6], the target named is DAPK1 (Homo sapiens, UniProt P53355). Conditions: 1 μM; Run 1, Run 2.
The target in experiment [7] is CDK3/cyclin E2 (Homo sapiens, UniProt Q00526). Put plainly: biochemical. Particulars: read-out: % enzyme activity, 1 μM; Run 1, Run 2.
Experiment [8] has as its target T3, EPHB3 (Homo sapiens, UniProt P54753).
T3 sequence (P54753 34-998): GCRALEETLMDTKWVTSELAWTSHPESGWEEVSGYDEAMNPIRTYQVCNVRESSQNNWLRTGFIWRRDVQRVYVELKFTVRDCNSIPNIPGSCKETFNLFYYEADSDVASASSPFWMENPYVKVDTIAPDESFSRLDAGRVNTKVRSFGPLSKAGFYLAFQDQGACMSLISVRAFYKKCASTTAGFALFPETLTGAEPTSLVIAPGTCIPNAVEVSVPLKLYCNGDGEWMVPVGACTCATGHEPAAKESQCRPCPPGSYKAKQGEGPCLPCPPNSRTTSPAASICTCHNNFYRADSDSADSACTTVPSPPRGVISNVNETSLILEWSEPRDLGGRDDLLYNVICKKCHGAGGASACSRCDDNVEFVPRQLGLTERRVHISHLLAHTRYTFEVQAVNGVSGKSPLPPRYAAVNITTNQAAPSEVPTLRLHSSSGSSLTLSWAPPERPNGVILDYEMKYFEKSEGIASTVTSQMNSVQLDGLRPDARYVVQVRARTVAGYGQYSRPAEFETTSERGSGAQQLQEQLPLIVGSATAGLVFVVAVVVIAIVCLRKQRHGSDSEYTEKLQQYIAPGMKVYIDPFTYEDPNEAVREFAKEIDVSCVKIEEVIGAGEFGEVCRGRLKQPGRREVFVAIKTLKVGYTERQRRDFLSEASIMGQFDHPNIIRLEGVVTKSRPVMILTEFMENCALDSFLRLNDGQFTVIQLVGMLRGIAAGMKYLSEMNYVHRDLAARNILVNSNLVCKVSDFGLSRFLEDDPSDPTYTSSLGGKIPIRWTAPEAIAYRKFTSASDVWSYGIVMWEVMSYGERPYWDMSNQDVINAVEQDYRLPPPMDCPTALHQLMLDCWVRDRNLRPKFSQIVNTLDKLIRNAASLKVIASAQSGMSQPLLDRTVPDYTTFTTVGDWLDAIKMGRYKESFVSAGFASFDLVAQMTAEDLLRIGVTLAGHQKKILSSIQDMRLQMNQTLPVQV
Particulars: 1 μM; Run 1, Run 2.

Experiment [9] addresses VRK2 (Homo sapiens, UniProt Q86Y07). The experiment is described as follows: biochemical. Conditions: read-out: % enzyme activity, 1 μM; Run 1, Run 2.

Molecules are shown by their SMILES.

Sequence of VRK2 (Q86Y07 whole entry, species assumed): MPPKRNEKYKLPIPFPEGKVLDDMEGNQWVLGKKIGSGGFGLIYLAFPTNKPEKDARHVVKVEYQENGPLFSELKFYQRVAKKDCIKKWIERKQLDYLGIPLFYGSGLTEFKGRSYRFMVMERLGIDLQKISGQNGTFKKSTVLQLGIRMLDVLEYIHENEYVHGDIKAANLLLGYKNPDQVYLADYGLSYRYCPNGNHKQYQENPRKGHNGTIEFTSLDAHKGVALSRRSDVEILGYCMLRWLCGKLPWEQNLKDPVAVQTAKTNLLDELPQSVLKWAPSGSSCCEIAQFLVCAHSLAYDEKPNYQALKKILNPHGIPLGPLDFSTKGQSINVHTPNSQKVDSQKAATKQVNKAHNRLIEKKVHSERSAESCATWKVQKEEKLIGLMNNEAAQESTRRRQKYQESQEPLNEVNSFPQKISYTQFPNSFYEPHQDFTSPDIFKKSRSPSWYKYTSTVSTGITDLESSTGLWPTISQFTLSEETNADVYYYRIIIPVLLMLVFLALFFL
Sequence of CDK3/cyclin E2 (Q00526 whole entry): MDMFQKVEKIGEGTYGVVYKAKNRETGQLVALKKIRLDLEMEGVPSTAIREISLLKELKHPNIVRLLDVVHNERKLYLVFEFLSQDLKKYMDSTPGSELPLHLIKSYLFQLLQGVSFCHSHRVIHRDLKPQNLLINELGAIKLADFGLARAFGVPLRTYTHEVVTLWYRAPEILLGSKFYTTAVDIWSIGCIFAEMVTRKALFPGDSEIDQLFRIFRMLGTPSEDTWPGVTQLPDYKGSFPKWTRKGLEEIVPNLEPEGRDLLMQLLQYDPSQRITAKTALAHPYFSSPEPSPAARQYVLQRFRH
Sequence of CDK3/cyclin E2 (O96020 whole entry partner): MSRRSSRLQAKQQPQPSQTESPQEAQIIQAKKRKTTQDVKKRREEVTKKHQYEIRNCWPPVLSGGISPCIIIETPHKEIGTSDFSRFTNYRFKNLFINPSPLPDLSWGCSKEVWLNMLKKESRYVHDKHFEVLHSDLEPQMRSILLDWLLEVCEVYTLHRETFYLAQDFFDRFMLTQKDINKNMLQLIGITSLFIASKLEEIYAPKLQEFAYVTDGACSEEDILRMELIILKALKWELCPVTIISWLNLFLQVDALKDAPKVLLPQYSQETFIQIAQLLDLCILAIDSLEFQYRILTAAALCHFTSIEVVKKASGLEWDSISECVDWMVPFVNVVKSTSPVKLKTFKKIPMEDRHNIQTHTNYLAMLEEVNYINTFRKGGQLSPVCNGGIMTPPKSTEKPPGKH
Sequence of CDK5/p35 (Q00535 whole entry): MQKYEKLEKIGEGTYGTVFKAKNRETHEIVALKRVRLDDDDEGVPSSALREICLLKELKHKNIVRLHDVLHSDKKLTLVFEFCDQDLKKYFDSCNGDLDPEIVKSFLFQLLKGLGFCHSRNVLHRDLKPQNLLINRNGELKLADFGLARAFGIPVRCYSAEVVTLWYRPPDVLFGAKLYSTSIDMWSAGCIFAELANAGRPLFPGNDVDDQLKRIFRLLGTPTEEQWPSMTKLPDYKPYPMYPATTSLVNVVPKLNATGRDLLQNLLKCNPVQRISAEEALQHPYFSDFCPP
Sequence of CDK5/p35 (Q15078 whole entry partner): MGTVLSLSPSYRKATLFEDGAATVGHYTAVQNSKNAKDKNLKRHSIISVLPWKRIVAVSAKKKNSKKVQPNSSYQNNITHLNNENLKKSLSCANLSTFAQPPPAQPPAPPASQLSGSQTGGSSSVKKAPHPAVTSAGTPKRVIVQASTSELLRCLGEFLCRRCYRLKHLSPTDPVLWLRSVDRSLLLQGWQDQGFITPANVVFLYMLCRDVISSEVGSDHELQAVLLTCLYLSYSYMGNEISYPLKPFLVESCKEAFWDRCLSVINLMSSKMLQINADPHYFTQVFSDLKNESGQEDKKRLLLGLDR
Sequence of CDK6/cyclin D3 (Q00534 whole entry): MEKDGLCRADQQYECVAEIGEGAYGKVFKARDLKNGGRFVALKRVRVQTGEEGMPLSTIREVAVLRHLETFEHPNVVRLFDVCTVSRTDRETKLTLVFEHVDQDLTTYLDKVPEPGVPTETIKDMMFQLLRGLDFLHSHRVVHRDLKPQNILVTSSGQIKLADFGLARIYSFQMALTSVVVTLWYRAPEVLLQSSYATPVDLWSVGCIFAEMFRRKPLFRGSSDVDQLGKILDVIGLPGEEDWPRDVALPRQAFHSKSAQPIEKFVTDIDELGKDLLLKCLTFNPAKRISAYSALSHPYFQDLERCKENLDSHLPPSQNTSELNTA
Sequence of CDK6/cyclin D3 (P30281 whole entry partner): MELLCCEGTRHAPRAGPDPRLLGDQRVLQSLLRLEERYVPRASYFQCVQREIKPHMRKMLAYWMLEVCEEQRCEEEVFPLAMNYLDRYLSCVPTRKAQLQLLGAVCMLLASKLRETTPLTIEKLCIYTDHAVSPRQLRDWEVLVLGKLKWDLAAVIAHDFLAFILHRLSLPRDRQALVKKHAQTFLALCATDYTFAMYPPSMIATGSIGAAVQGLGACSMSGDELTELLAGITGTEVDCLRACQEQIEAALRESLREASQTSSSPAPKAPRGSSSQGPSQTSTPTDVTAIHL
Sequence of DAPK1 (P53355 whole entry): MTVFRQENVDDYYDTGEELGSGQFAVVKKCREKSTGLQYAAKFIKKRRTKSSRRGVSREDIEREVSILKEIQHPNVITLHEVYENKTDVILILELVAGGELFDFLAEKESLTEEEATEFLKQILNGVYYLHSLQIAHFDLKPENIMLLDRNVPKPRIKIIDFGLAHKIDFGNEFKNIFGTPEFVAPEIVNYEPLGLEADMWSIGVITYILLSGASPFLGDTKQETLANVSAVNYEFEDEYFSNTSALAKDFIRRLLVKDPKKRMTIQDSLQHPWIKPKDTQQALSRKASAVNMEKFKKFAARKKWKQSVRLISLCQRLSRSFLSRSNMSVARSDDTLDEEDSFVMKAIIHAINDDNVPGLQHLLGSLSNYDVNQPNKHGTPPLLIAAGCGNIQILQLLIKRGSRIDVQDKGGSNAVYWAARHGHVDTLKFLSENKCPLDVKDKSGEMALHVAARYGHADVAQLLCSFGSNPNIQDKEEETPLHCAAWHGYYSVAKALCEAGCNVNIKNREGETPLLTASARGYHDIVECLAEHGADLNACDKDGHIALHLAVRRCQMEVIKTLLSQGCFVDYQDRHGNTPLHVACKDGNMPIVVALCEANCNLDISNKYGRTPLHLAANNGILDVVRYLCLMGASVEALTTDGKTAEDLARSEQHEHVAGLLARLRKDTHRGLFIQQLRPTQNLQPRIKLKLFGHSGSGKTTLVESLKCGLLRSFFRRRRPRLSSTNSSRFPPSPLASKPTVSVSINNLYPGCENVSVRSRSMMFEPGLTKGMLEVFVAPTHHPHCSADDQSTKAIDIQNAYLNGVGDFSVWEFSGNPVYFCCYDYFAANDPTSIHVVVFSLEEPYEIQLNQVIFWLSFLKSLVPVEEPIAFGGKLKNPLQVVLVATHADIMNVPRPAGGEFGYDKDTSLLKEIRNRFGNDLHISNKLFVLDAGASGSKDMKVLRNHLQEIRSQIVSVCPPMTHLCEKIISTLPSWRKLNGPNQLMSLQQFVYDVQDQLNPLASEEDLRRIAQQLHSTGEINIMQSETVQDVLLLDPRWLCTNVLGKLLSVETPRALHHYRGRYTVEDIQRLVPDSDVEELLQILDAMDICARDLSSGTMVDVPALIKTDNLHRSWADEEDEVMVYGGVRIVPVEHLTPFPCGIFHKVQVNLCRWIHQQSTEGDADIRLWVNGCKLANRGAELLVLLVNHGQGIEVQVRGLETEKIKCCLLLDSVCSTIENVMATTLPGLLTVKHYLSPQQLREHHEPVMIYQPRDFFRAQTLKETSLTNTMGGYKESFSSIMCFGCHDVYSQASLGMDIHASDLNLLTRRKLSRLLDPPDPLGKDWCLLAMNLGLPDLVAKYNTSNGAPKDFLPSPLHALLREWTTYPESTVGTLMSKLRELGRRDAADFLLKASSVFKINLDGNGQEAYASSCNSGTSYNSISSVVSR
Sequence of FGFR4 (P22455 22-802): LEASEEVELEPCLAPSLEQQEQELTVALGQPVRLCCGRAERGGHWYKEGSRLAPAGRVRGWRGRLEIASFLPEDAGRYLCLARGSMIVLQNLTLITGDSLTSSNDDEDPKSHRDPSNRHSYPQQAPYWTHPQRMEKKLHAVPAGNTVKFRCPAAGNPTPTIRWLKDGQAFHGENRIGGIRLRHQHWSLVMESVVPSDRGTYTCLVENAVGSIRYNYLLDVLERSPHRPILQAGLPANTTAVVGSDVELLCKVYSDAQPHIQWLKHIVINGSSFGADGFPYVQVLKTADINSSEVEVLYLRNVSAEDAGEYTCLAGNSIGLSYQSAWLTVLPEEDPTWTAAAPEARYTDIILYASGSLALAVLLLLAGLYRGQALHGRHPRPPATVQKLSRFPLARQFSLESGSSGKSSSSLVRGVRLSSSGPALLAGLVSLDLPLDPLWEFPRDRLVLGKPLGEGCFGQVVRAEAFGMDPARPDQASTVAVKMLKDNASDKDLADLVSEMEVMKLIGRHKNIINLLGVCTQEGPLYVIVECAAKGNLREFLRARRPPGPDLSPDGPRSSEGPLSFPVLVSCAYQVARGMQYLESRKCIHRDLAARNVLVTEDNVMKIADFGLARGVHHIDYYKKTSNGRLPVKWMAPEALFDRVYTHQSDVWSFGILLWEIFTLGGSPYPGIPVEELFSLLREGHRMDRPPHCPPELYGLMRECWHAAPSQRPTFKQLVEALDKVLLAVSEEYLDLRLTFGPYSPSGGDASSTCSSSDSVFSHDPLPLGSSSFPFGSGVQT

For `COc1cc(-c2cncc(-c3ccc(N4CCN(C)CC4)cc3)c2C)cc(F)c1C(N)=O` [Compound 26a, 2-Fluoro-6-methoxy-4-(4-methyl-5-(4-(4-methylpiperazin-1-yl)phenyl)pyridin-3-yl)benzamide], the remaining activity at 1 µM came to 96.2% in experiment [1]; 98.2% in [2]; 86.3% in [5]; 89.5% in experiment [7]; 89.1% in experiment [9]. In addition, the “% enzyme activity” value is reported as 97.48% in experiment [3], 92.71% in experiment [4], 94.56% in experiment [6] and 95.16% in [8].
In the case of `COc1cc(-c2cncc(-c3ccc(N4C[C@@H](C)N(C)[C@@H](C)C4)cc3)c2C)cc(F)c1C(N)=O` [Compound 26c, 2-Fluoro-6-methoxy-4-(4-methyl-5-(4-((3R,5S)-3,4,5-trimethylpiperazin-1-yl)phenyl)pyridin-3-yl)benzamide], the remaining activity at 1 µM was determined as 97.6% in experiment [1]; 99.6% in experiment [2]; 103% in [5]; 86.2% in [7]; 92.5% in experiment [9]. Also, the “% enzyme activity” value is given as 97.08% in experiment [3], 97.52% in [4], 96.25% in experiment [6] and 96.08% in experiment [8].
